Data: US12702676B2, “Fosfomycin dosing regimens” (priority 2017, dated 2026)

How the values were obtained:
[1] = system: baseline bacterial pathogen in cUTI or AP; assay: ZEUS Phase 2/3 noninferiority trial, efficacy at TOC in hospitalized adults; assay type: in vivo, human; conditions: for overall success rates at TOC: m-MITT population, clinical cure plus microbiologic eradication, 6 g ZTI-01 q8h or 4.5 g P-T q8h IV; for overall success rates using unique pathogen strains typed by PFGE: post-hoc analysis
Method: Oral step-down therapy was prohibited (FIG. 4).
A post-hoc analysis using pulsed-field gel electrophoresis (PFGE) was performed to molecularly type all baseline and TOC pathogens (both treatment arms), in order to confirm microbiological eradication/persistence; a total of 20 post-baseline pathogens were identified as unique, unrelated strains compared to baseline.

[2] = ZEUS Phase 2/3 trial, safety (adverse events); conditions: for Any AEs / Any TEAEs / Drug-related SAE / Drug-related TEAEs / SAEs / Serious TEAEs leading to study drug discontinuation / TEAEs leading to study drug discontinuation / TEAEs: Mild / TEAEs: Moderate / TEAEs: Severe: MITT Safety Population (n = 233 ZTI-01, n = 231 P-T); for SAE related to study drug (1 in each treatment group): in vivo
[3] = Bacteremia, m-MITT (N1 19 ZTI-01, 13 P-T)
[4] = CE-TOC (N1 199 ZTI-01, 196 P-T)
[5] = ME-TOC (N1 155 ZTI-01, 145 P-T)
[6] = Original Analysis, ME-TOC (N1 155 ZTI-01, 145 P-T)
[7] = Original Analysis, m-MITT (N1 184 ZTI-01, 178 P-T)
[8] = Post-hoc Analysis Using PFGE Typing, ME-TOC (N1 155 ZTI-01, 145 P-T)
[9] = Post-hoc Analysis Using PFGE Typing, m-MITT (N1 184 ZTI-01, 178 P-T)
[10] = SIRS, m-MITT (N1 62 ZTI-01, 52 P-T)
[11] = m-MITT (N1 184 ZTI-01, 178 P-T)

piperacillin/tazobactam [P-T]
Clinical Response at TOC: Eradication [1, 3]: 10 (76.9%) n (%)
Clinical Response at TOC: Indeterminate [1, 3]: 0 (0%) n (%)
Clinical Response at TOC: Persistence [1, 3]: 3 (23.1%) n (%)
Overall Response at TOC: Eradication [1, 3]: 5 (38.5%) n (%)
Overall Response at TOC: Indeterminate [1, 3]: 0 (0%) n (%)
Overall Response at TOC: Persistence [1, 3]: 8 (61.5%) n (%)
Per-patient Microbiological Response at TOC: Eradication [1, 3]: 6 (46.2%) n (%)
Per-patient Microbiological Response at TOC: Indeterminate [1, 3]: 0 (0%) n (%)
Per-patient Microbiological Response at TOC: Persistence [1, 3]: 7 (53.8%) n (%)
Clinical Response at TOC: Cure [1, 4]: 182 (92.9%) n (%)
Clinical Response at TOC: Failure [1, 4]: 14 (7.1%) n (%)
Clinical Response at TOC: Cure [1, 5]: 135 (93.1%) n (%)
Clinical Response at TOC: Failure [1, 5]: 10 (6.9%) n (%)
Clinical Response at TOC: Cure ([1]; MITT (N1 233 ZTI-01, 231 P-T)): 212 (91.8%) n (%)
Clinical Response at TOC: Failure ([1]; MITT (N1 233 ZTI-01, 231 P-T)): 16 (6.9%) n (%)
Clinical Response at TOC: Indeterminate ([1]; MITT (N1 233 ZTI-01, 231 P-T)): 3 (1.3%) n (%)
Microbiological Response at TOC: Eradication [1, 6]: 86 (59.3%) n (%)
Microbiological Response at TOC: Persistence [1, 6]: 59 (40.7%) n (%)
Microbiological Response at TOC: Eradication [1, 7]: 100 (56.2%) n (%)
Microbiological Response at TOC: Indeterminate [1, 7]: 9 (5.1%) n (%)
Microbiological Response at TOC: Persistence [1, 7]: 69 (38.8%) n (%)
Microbiological Response at TOC: Eradication [1, 8]: 93 (64.1%) n (%)
Microbiological Response at TOC: Persistence [1, 8]: 52 (35.9%) n (%)
Microbiological Response at TOC: Eradication [1, 9]: 107 (60.1%) n (%)
Microbiological Response at TOC: Indeterminate [1, 9]: 9 (5.1%) n (%)
Microbiological Response at TOC: Persistence [1, 9]: 62 (34.8%) n (%)
Clinical Response at TOC: Eradication [1, 10]: 48 (92.3%) n (%)
Clinical Response at TOC: Indeterminate [1, 10]: 2 (3.8%) n (%)
Clinical Response at TOC: Persistence [1, 10]: 2 (3.8%) n (%)
Overall Response at TOC: Eradication [1, 10]: 39 (75.0%) n (%)
Overall Response at TOC: Indeterminate [1, 10]: 2 (3.8%) n (%)
Overall Response at TOC: Persistence [1, 10]: 11 (21.2%) n (%)
Patient Microbiological response at TOC: Eradication [1, 10]: 40 (76.9%) n (%)
Patient Microbiological response at TOC: Indeterminate [1, 10]: 2 (3.8%) n (%)
Patient Microbiological response at TOC: Persistence [1, 10]: 10 (19.2%) n (%)
Clinical Response at TOC: Cure [1, 11]: 163 (91.6%) n (%)
Clinical Response at TOC: Failure [1, 11]: 12 (6.7%) n (%)
Clinical Response at TOC: Indeterminate [1, 11]: 3 (1.7%) n (%)
overall success rates at TOC [1]: 54.5%
overall success rates using unique pathogen strains typed by PFGE ([1]; m-MITT, TOC): 57.3%
Any AEs [2]: 74 (32.0%) n (%)
Any TEAEs [2]: 74 (32.0%) n (%)
Drug-related SAE [2]: 1 (0.4%) n (%)
Drug-related TEAEs [2]: 32 (13.9%) n (%)
SAEs [2]: 6 (2.6%) n (%)
Serious TEAEs leading to study drug discontinuation [2]: 1 (0.4%) n (%)
TEAEs leading to study drug discontinuation [2]: 6 (2.6%) n (%)
TEAEs: Mild [2]: 49 (21.2%) n (%)
TEAEs: Moderate [2]: 38 (16.5%) n (%)
TEAEs: Severe [2]: 4 (1.7%) n (%)
SAE related to study drug (1 in each treatment group) [2]: renal insufficiency

C[C@@H]1O[C@@H]1P(=O)(O)O [ZTI-01, fosfomycin]
Clinical Response at TOC: Eradication [1, 3]: 15 (78.9%) n (%)
Clinical Response at TOC: Indeterminate [1, 3]: 2 (10.5%) n (%)
Clinical Response at TOC: Persistence [1, 3]: 2 (10.5%) n (%)
Overall Response at TOC: Eradication [1, 3]: 9 (47.4%) n (%)
Overall Response at TOC: Indeterminate [1, 3]: 3 (15.8%) n (%)
Overall Response at TOC: Persistence [1, 3]: 7 (36.8%) n (%)
Per-patient Microbiological Response at TOC: Eradication [1, 3]: 9 (47.4%) n (%)
Per-patient Microbiological Response at TOC: Indeterminate [1, 3]: 4 (21.2%) n (%)
Per-patient Microbiological Response at TOC: Persistence [1, 3]: 6 (31.6%) n (%)
Clinical Response at TOC: Cure [1, 4]: 188 (94.5%) n (%)
Clinical Response at TOC: Failure [1, 4]: 11 (5.5%) n (%)
Clinical Response at TOC: Treatment Difference (ZTI-01 vs P-T) ([1]; CE-TOC, 95% CI (−3.7, 6.9)): 1.6%
Clinical Response at TOC: Cure [1, 5]: 148 (95.5%) n (%)
Clinical Response at TOC: Failure [1, 5]: 7 (4.5%) n (%)
Clinical Response at TOC: Treatment Difference (ZTI-01 vs P-T) ([1]; ME-TOC, 95% CI (−3.5, 8.3)): 2.4%
Clinical Response at TOC: Cure ([1]; MITT (N1 233 ZTI-01, 231 P-T)): 211 (90.6%) n (%)
Clinical Response at TOC: Failure ([1]; MITT (N1 233 ZTI-01, 231 P-T)): 11 (4.7%) n (%)
Clinical Response at TOC: Indeterminate ([1]; MITT (N1 233 ZTI-01, 231 P-T)): 11 (4.7%) n (%)
Clinical Response at TOC: Treatment Difference (ZTI-01 vs P-T) ([1]; MITT, 95% CI (−6.8, 4.4)): −1.2%
Microbiological Response at TOC: Eradication [1, 6]: 109 (70.3%) n (%)
Microbiological Response at TOC: Persistence [1, 6]: 46 (29.7%) n (%)
Microbiological Response at TOC: Eradication [1, 7]: 121 (65.8%) n (%)
Microbiological Response at TOC: Indeterminate [1, 7]: 13 (7.1%) n (%)
Microbiological Response at TOC: Persistence [1, 7]: 50 (27.2%) n (%)
Microbiological Response at TOC: Eradication [1, 8]: 117 (75.5%) n (%)
Microbiological Response at TOC: Persistence [1, 8]: 38 (24.5%) n (%)
Microbiological Response at TOC: Eradication [1, 9]: 130 (70.7%) n (%)
Microbiological Response at TOC: Indeterminate [1, 9]: 13 (7.1%) n (%)
Microbiological Response at TOC: Persistence [1, 9]: 41 (22.3%) n (%)
Clinical Response at TOC: Eradication [1, 10]: 55 (88.7%) n (%)
Clinical Response at TOC: Indeterminate [1, 10]: 4 (6.5%) n (%)
Clinical Response at TOC: Persistence [1, 10]: 3 (4.8%) n (%)
Overall Response at TOC: Eradication [1, 10]: 41 (66.1%) n (%)
Overall Response at TOC: Indeterminate [1, 10]: 5 (8.1%) n (%)
Overall Response at TOC: Persistence [1, 10]: 16 (25.8%) n (%)
Patient Microbiological response at TOC: Eradication [1, 10]: 41 (66.1%) n (%)
Patient Microbiological response at TOC: Indeterminate [1, 10]: 7 (11.3%) n (%)
Patient Microbiological response at TOC: Persistence [1, 10]: 14 (22.6%) n (%)
Clinical Response at TOC: Cure [1, 11]: 167 (90.8%) n (%)
Clinical Response at TOC: Failure [1, 11]: 9 (4.9%) n (%)
Clinical Response at TOC: Indeterminate [1, 11]: 8 (4.3%) n (%)
overall success rates at TOC [1]: 64.7%
difference in overall success rate (ZTI-01 vs P-T) ([1]; m-MITT, TOC, 95% CI −0.4, 20.8): 10.2%
Clinical Response at TOC: Treatment Difference (ZTI-01 vs P-T) ([1]; m-MITT, 95% CI (−7.2, 5.6)): −0.8%
overall success rates using unique pathogen strains typed by PFGE ([1]; m-MITT, TOC): 69.0%
difference in overall success rate using PFGE typing (ZTI-01 vs P-T) ([1]; post-hoc, 95% CI 1.3, 22.1): 11.7%
effective (patients with AP) ([1]; preferred dosing regimen 6 g tid): 68%
Any AEs [2]: 99 (42.5%) n (%)
Any TEAEs [2]: 98 (42.1%) n (%)
Drug-related SAE [2]: 1 (0.4%) n (%)
Drug-related TEAEs [2]: 48 (20.6%) n (%)
SAEs [2]: 5 (2.1%) n (%)
Serious TEAEs leading to study drug discontinuation [2]: 0 (0%) n (%)
TEAEs leading to study drug discontinuation [2]: 7 (3.0%) n (%)
TEAEs: Mild [2]: 84 (36.1%) n (%)
TEAEs: Moderate [2]: 35 (15.0%) n (%)
TEAEs: Severe [2]: 5 (2.1%) n (%)
SAE related to study drug (1 in each treatment group) [2]: hypokalemia
tolerability ([2]; majority of AEs mild to moderate): generally well tolerated
treatment-emergent adverse events (TEAEs) observed, % of patients ([2]; safety population (n=464)): 42.1%
